What all share (assay type): in vivo
Assay [1] has as its system Housefly [Musca domestica]. In words: Housefly insecticidal test. The note with it: μg per 25 female flies; mortality after 48 hours. In short, it runs like this: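 Dry-film exposure of 25 female houseflies per cage, 48 h; LC50 as μg per 25 flies.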
Assay [2] deals with Tobacco Budworm [Heliothis virescens (Fabricius)] eggs. In words: Tobacco budworm egg test. Conditions: 2-day old eggs, percent in solution. In short, it runs like this: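 LC50 is given as percent compound in the dipping solution, fitted from dosage-mortality curves. Two-day-old eggs on paper towel were dipped in acetone solutions (top concentration 0.1%), kept at 78° F on rearing medium, and scored after control hatch and larval feeding.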

Assay [3] relates to Aster Leafhopper [Macrosteles fascifrens (Stal)]. Description: Aster leafhopper insecticidal test. The note with it: adults/nymphs, percent in solution; 48 hours. As for the experimental part: The compounds in Tables 1 and 2 above were tested for insecticidal activity using the following testing procedures. LC50 values, based on the results of these tests and calculated according to dosage-mortality curves, are expressed in Table 3.
Aster Leafhopper [Macrosteles fascifrens (Stal)]
Oat seedlings (Avena sp) were grown in a commercial potting soil in cups. When the plants were approximately 10 cm tall they were thinned to three plants per cup and dipped for 2-3 seconds in 50-50 acetone-water solutions of the test compounds. When the plants had dried, a clear plastic tube was placed over them and the bottom end pressed into the cup. Ten aster leafhopper adults/nymphs were then placed in each tube and the tops of the tubes covered with white organdy cloth. Mortality counts were made after 48 hours. Test concentrations ranged from 0.05% down to that at which 50% mortality occurred. The LC50 values are expressed below in Table 3 under the heading "LH" in terms of the percent of the test compound in the solution.

The subject of assay [4] is Cabbage Looper [Trichoplusia ni (Hubner)]. In words: Cabbage looper insecticidal test. The note with it: second-instar larvae, percent in solution; 3-5 days. In short, it runs like this:
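LC50, as percent test compound in solution, derived from dosage-mortality curves; concentrations started at 0.1% and went lower. Five second-instar larvae per dish fed on acetone-water-dipped, dried squash cotyledons in a humid chamber. Deaths recorded 3-5 days post-infestation.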

As for `CC(C)CC(=Nc1cc(Cl)cc(Cl)c1)OCc1cccc(Oc2ccccc2)c1` [Compound 10], the “LC50, HF” value in assay [1] was more than 100 µg. The “LC50, TBW, E (TBW-E)” value in assay [2] is listed as more than 0.1%. Moreover, the “LC50, LH” value in assay [3] is recorded as more than 0.05%. Also, the “LC50, CL” value in assay [4] is 0.01%.
With `CC(C)C(=Nc1cc(Cl)cc(Cl)c1)OCc1cccc(Oc2ccccc2)c1` [Compound 16], the “LC50, HF” value in assay [1] worked out at 20 µg. Besides, in assay [2], the “LC50, TBW, E (TBW-E)” value came out at 0.04%. Also, the “LC50, LH” value in assay [3] stood at 0.0005%. In addition, the “LC50, CL” value in assay [4] worked out at 0.004%.
For `CC(C)C(=Nc1cc(Cl)c(Cl)c(Cl)c1)OCc1cccc(Oc2ccccc2)c1` [Compound 20] the same measures were 64 µg, less than 0.1%, 0.003% and 0.0025%.
For `Fc1ccc(N=C(OCc2cccc(Oc3ccccc3)c2)C(Cl)=C(Cl)Cl)cc1` [Compound 49] the same measures were more than 100 µg, more than 0.05%, more than 0.05% and 0.007%.
For `CC(C)C(=Nc1c(F)c(F)cc(F)c1F)OCc1cccc(Oc2ccccc2)c1` [Compound 57], the “LC50, HF” value in assay [1] was more than 100 µg. The “LC50, TBW, E (TBW-E)” value in assay [2] turned out to be 0.1%. In addition, the “LC50, LH” value in assay [3] was 0.0005%. For the same compound, the “LC50, CL” value in assay [4] was 0.004%.
Take `COc1ccc(OC)c(N=C(OCc2cccc(Oc3ccccc3)c2)C(C)C)c1` [Compound 69]: in assay [1], the “LC50, HF” value is more than 100 µg. In addition, in assay [2], the “LC50, TBW, E (TBW-E)” value is on record as more than 0.1%. Besides, the “LC50, LH” value in assay [3] was more than 0.05%. The “LC50, CL” value in assay [4] was determined as 0.09%.
For `CC(C)C(=Nc1ccc(OC(F)(F)F)cc1)OCc1cccc(Oc2ccccc2)c1` [Compound 70] the same measures were less than 100 µg, 0.01%, more than 0.05% and less than 0.1%.
As to `CC(C)C(=Nc1ccc(C(F)(F)F)c(Cl)c1)OCc1cccc(Oc2ccccc2)c1` [Compound 83], the “LC50, HF” value in assay [1] was more than 100 µg. Also, in assay [2], the “LC50, TBW, E (TBW-E)” value is given as more than 0.1%. The “LC50, LH” value in assay [3] was more than 0.05%. Also, the “LC50, CL” value in assay [4] is recorded as 0.007%.
For `Cc1ccc(N=C(OCc2cccc(Oc3ccccc3)c2)C(C)C)cc1Cl` [Compound 90], in that order: more than 100 µg, 0.016%, 0.001% and more than 0.1%.
For `COc1c(Cl)cc(N=C(OCc2cccc(Oc3ccccc3)c2)C(C)C)cc1Cl` [Compound 91] the same measures were 37 µg, more than 0.01%, 0.003% and 0.002%.
Take `CC(C)C(=Nc1c(Cl)cc([N+](=O)[O-])cc1Cl)OCc1cccc(Oc2ccccc2)c1` [Compound 92]: in assay [1], the “LC50, HF” value was more than 100 µg. For the same compound, the “LC50, TBW, E (TBW-E)” value in assay [2] was more than 0.1%. For the same compound, in assay [3], the “LC50, LH” value is more than 0.05%. Further, the “LC50, CL” value in assay [4] came to 0.015%.
For `Clc1ccc(N=C(OCc2cccc(Oc3ccccc3)c2)C(Cl)Cl)c2ccccc12` [Compound 98] the same measures were more than 100 µg, 0.1%, more than 0.05% and 0.016%.
For `Cc1c(Cl)cc(N=C(OCc2cccc(Oc3ccccc3)c2)C(C)C)cc1Cl` [Compound 101], the “LC50, HF” value in assay [1] came to 81 µg. Besides, the “LC50, TBW, E (TBW-E)” value in assay [2] is listed as more than 0.1%. The “LC50, LH” value in assay [3] came to 0.0008%. For the same compound, the “LC50, CL” value in assay [4] is reported as 0.0045%.
For `CCOC(=O)c1cc(N=C(OCc2cccc(Oc3ccccc3)c2)C(C)C)ccc1Cl` [Compound 102], in that order: more than 100 µg, more than 0.1%, more than 0.05% and 0.075%.
Regarding `CC(C)(Cl)C(=Nc1ccc(C#N)c(Cl)c1)OCc1cccc(Oc2ccccc2)c1` [Compound 108], in assay [1], the “LC50, HF” value was 44 µg. In assay [2], the “LC50, TBW, E (TBW-E)” value is reported as more than 0.1%. The “LC50, LH” value in assay [3] is listed as more than 0.01%. In assay [4], the “LC50, CL” value was 0.002%.
For `CC(C)C(=Nc1c(F)cc(F)cc1Br)OCc1cccc(Oc2ccccc2)c1` [Compound 129], in that order: more than 100 µg, more than 0.1%, 0.01% and 0.005%.
On to `CC(C)C(=Nc1ccc(Br)cc1)OCc1cccc(Oc2ccccc2)c1` [Compound 131], for which the “LC50, HF” value in assay [1] worked out at 17 µg. Also, the “LC50, TBW, E (TBW-E)” value in assay [2] is more than 0.1%. For the same compound, the “LC50, LH” value in assay [3] worked out at 0.005%. For the same compound, in assay [4], the “LC50, CL” value was determined as 0.0045%.
For `CC(C)(C)C(=Nc1ccc(Br)cc1)OCc1cccc(Oc2ccccc2)c1` [Compound 135], in that order: more than 100 µg, more than 0.1%, more than 0.05% and 0.004%.
`CC(C)C(=Nc1ccc(I)cc1)OCc1cccc(Oc2ccccc2)c1` [Compound 137]: the “LC50, HF” value in assay [1] amounted to 18 µg. In assay [2], the “LC50, TBW, E (TBW-E)” value came to 0.04%. Besides, the “LC50, LH” value in assay [3] is on record as 0.008%. In addition, in assay [4], the “LC50, CL” value is recorded as 0.003%.
For `CCc1cccc(N=C(OCc2cccc(Oc3ccccc3)c2)C(C)C)c1` [Compound 154], in that order: 25 µg, 0.1%, more than 0.05% and 0.004%.
For `CCc1ccc(N=C(OCc2cccc(Oc3ccc(F)cc3)c2)C(C)C)cc1` [Compound 159], in that order: 25 µg, 0.08%, 0.0025% and 0.001%.
On to `CCc1ccc(N=C(OCc2cccc(Oc3ccccc3)c2)C(C)C)cc1` [Compound 161], for which, in assay [1], the “LC50, HF” value was found to be 15 µg. Also, in assay [2], the “LC50, TBW, E (TBW-E)” value is 0.07%. Also, the “LC50, LH” value in assay [3] amounted to 0.002%. For the same compound, in assay [4], the “LC50, CL” value was 0.0014%.
For `CCc1cccc(N=C(OCc2cccc(Oc3ccccc3)c2)C(C)(C)C)c1` [Compound 162], in that order: more than 100 µg, more than 0.1%, more than 0.05% and 0.035%.
For `CC(C)C(=Nc1ccc2c(c1)CCC2)OCc1cccc(Oc2ccccc2)c1` [Compound 187] the same measures were 15 µg, more than 0.1%, 0.0025% and 0.0025%.
For `CCCC(=Nc1ccc2c(c1)OCO2)OCc1cccc(Oc2ccccc2)c1` [Compound 188] the same measures were 12 µg, more than 0.1%, more than 0.05% and 0.002%.
With `Cc1ccc(Oc2cccc(COC(=Nc3ccc(F)c(Cl)c3)C(C)C)c2)cc1` [Compound 225], in assay [1], the “LC50, HF” value was more than 100 µg. For the same compound, in assay [2], the “LC50, TBW, E (TBW-E)” value is reported as more than 0.1%. Also, the “LC50, LH” value in assay [3] is on record as more than 0.05%. In assay [4], the “LC50, CL” value came to 0.0025%.
For `CC(C)C(=Nc1ccc(C(C)C)cc1)OCc1cccc(Oc2ccc(F)cc2)c1` [Compound 228], in that order: more than 100 µg, more than 0.1%, more than 0.05% and 0.0025%.
As for `CC(C)C(=Nc1ccc2c(c1)OC(C)(C)O2)OCc1ccc(F)c(Oc2ccccc2)c1` [Compound 242], in assay [1], the “LC50, HF” value is less than 100 µg. The “LC50, TBW, E (TBW-E)” value in assay [2] is more than 0.1%. Moreover, in assay [3], the “LC50, LH” value is recorded as more than 0.05%. The “LC50, CL” value in assay [4] turned out to be 0.00025%.
For `CSc1ccc(Oc2cccc(COC(=Nc3ccc(F)cc3)C(C)C)c2)cc1` [Compound 257] the same measures were more than 100 µg, more than 0.1%, more than 0.05% and 0.008%.
Regarding `Fc1ccc(Oc2cccc(COC(=Nc3ccc(F)c(Cl)c3)C(F)(F)C(F)(F)F)c2)cc1` [Compound 258], the “LC50, HF” value in assay [1] was more than 100 µg. Besides, the “LC50, TBW, E (TBW-E)” value in assay [2] is listed as more than 0.1%. In assay [3], the “LC50, LH” value is on record as more than 0.05%. The “LC50, CL” value in assay [4] was 0.003%.
For `CC(C)C(=Nc1cc(F)ccc1Cl)OCc1ccc(F)c(Oc2ccc(F)cc2)c1` [Compound 303] the same measures were more than 100 µg, more than 0.1%, 0.0005% and 0.0015%.

These data come from patent US5070210A, “Novel ketenimines as intermediates for insecticides” (ICI Americas Inc., priority 1990, dated 1991).
